Assay results from patent US9334289B2, “Cephem compound having catechol or pseudo-catechol structure” (SHIONOGI & CO., LTD., priority 2011, dated 2016).
Values after ≈ are worked out from the molar mass of the structure shown.

Experiments:
Assay in all cases: MIC, CLSI broth microdilution, Test Example 2
Type in all cases: cell-based
[1] = test system: P. aeruginosa SR01332; details: Pseudomonas aeruginosa, SR01332; VIM-11 MBL producing strain (carbapenem resistance strain); cation-adjusted Iso-Sensitest broth containing human Apo-transferrin; 5×10^5 cfu/mL; read-out: Minimum Inhibitory Concentration (MIC) P. aeruginosa SR01332
Experimental: (§1) Measurement of Minimum Inhibitory Concentration (MIC: μg/mL) was conducted according to CLSI (Clinical and Laboratory Standards Institute) method, and the amount of bacteria for inoculation was 5×10^5 cfu/mL, and cation-adjusted Iso-Sensitest broth containing human Apo-transferrin was used as a test medium, and the experiment was conducted using broth microdilution method.

[2] = test system: K. pneumoniae ATCC700603; details: Klebsiella pneumoniae, ATCC700603; SHV18 ESBL producing strain; cation-adjusted Iso-Sensitest broth containing human Apo-transferrin; 5×10^5 cfu/mL; read-out: Minimum Inhibitory Concentration (MIC) K. pneumoniae ATCC 700603
Experimental: as §1

[3] = test system: E. coli ATCCBAA-200; details: Escherichia coli, ATCCBAA200; SHV-4 ESBL producing strain; cation-adjusted Iso-Sensitest broth containing human Apo-transferrin; 5×10^5 cfu/mL; read-out: Minimum Inhibitory Concentration (MIC) E. coli ATCC BAA-200
Experimental: as §1

[4] = test system: A. baumannii SR01331; details: Acinetobacter baumannii, SR01331; PER-1, OXA-23.51 ESBL- & OXA-type carbapenemase producing strain; cation-adjusted Iso-Sensitest broth containing human Apo-transferrin; 5×10^5 cfu/mL; read-out: Minimum Inhibitory Concentration (MIC) A. baumannii SR01331
Experimental: as §1

[5] = test system: E. coli SR01337; details: Escherichia coli, SR01337; TEM-1 ESBL producing strain; cation-adjusted Iso-Sensitest broth containing human Apo-transferrin; 5×10^5 cfu/mL; read-out: Minimum Inhibitory Concentration (MIC) E. coli SR01337
Experimental: as §1

[6] = test system: E. cloacae NCTC13464; details: Enterobacter cloacae, NCTC13464; CTX-M group 9 ESBL producing strain; cation-adjusted Iso-Sensitest broth containing human Apo-transferrin; 5×10^5 cfu/mL; read-out: Minimum Inhibitory Concentration (MIC) E. cloacae NCTC 13464
Experimental: as §1

[7] = test system: P. aeruginosa SR01335; details: Pseudomonas aeruginosa, SR01335; VIM-1 like MBL producing strain (carbapenem resistance strain); cation-adjusted Iso-Sensitest broth containing human Apo-transferrin; 5×10^5 cfu/mL; read-out: Minimum Inhibitory Concentration (MIC) P. aeruginosa SR01335
Experimental: as §1

[8] = test system: E. coli ATCCBAA-196; details: Escherichia coli, ATCCBAA196; TEM-10 ESBL producing strain; cation-adjusted Iso-Sensitest broth containing human Apo-transferrin; 5×10^5 cfu/mL; read-out: Minimum Inhibitory Concentration (MIC) E. coli ATCC BAA-196
Experimental: as §1

SMILES	MIC [1] [mg/L]	MIC [2] [mg/L]	MIC [3] [mg/L]	MIC [4] [mg/L]	MIC [5] [mg/L]	MIC [6] [mg/L]	MIC [7] [mg/L]	MIC [8] [mg/L]
Nc1nc(/C(=N/O[C@@H](CC(=O)O)C(=O)[O-])C(=O)N[C@@H]2C(=O)N3C(c4nnn[nH]4)=C(C[N+]4(CCNC(=O)c5ccc(O)c(O)c5F)CCCC4)CS[C@H]23)cs1 [Compound I-102]	4 (≈ 5.06 µM)	≤ 0.031	0.063 (≈ 0.0798 µM)	0.25 (≈ 0.317 µM)	≤ 0.031	0.063 (≈ 0.0798 µM)	1 (≈ 1.27 µM)	≤ 0.031
Nc1nc(/C(=N/O[C@@H](CC(=O)[O-])C(=O)[O-])C(=O)N[C@@H]2C(=O)N3C(c4nnn[n-]4)=C(C[N+]4(CCNC(=O)c5ccc(O)c(O)c5Cl)CCCCC4)CS[C@H]23)cs1.[Na+].[Na+] [Compound I-67]	2	≤ 0.031	0.063	0.25	≤ 0.031	0.063	2	≤ 0.031
CC(C)(O/N=C(\C(=O)N[C@@H]1C(=O)N2C(c3nnn[nH]3)=C(C[N+]3(CCNC(=O)c4ccc(O)c(O)c4F)CCCC3)CS[C@H]12)c1nc(N)sc1Cl)C(=O)[O-] [Compound I-106]	4 (≈ 5.04 µM)	≤ 0.031	0.063 (≈ 0.0793 µM)	0.5 (≈ 0.63 µM)	≤ 0.031	0.063 (≈ 0.0793 µM)	1 (≈ 1.26 µM)	≤ 0.031
Nc1nc(/C(=N/O[C@@H](CC(=O)O)C(=O)[O-])C(=O)N[C@@H]2C(=O)N3C(c4nnn[nH]4)=C(C[N+]4(CCNC(=O)c5ccc(O)c(O)c5F)CCCC4)CS[C@H]23)c(Cl)s1 [Compound I-103]	2 (≈ 2.43 µM)	0.5 (≈ 0.607 µM)	0.125 (≈ 0.152 µM)	0.25 (≈ 0.303 µM)	≤ 0.031	0.125 (≈ 0.152 µM)	1 (≈ 1.21 µM)	≤ 0.031
C[N+]1(CC2=C(c3nnn[nH]3)N3C(=O)[C@@H](NC(=O)/C(=N\O[C@@H](CC(=O)O)C(=O)O)c4nc(N)sc4Cl)[C@H]3SC2)[C@@H]2CC[C@H]1C[C@@H](NC(=O)c1ccc(O)c(O)c1Cl)C2.[Na+].[Na+] (stereo partly shown) [Compound I-96]	4	1	1	0.25	0.125	0.5	2	0.25

More lines, now with the values ahead:

MIC [1] [mg/L]	MIC [2] [mg/L]	MIC [3] [mg/L]	MIC [4] [mg/L]	MIC [5] [mg/L]	MIC [6] [mg/L]	MIC [7] [mg/L]	MIC [8] [mg/L]	SMILES
0.5	0.25	1	0.5	≤ 0.031	0.125	1	0.5	Cc1cc2cc(O)c(O)cc2c[n+]1CC1=C(c2nnn[nH]2)N2C(=O)[C@@H](NC(=O)/C(=N\OC(C)(C)C(=O)O)c3nsc(N)n3)[C@H]2SC1.[Na+] [Compound I-109]
1	1	1	0.5	≤ 0.031	0.25	1	0.5	CC(C)(O/N=C(\C(=O)N[C@@H]1C(=O)N2C(c3nnn[n-]3)=C(C[n+]3ccc(CNC(=O)c4ccc(O)c(O)c4Cl)cc3)CS[C@H]12)c1nsc(N)n1)C(=O)[O-].[Na+] [Compound I-114]
2	0.125	0.063	1	≤ 0.031	0.063	2	≤ 0.031	CC(C)(O/N=C(\C(=O)N[C@@H]1C(=O)N2C(c3nnn[n-]3)=C(C[N+]3(CCNC(=O)c4cc(O)c(O)c(Cl)c4)CCCC3)CS[C@H]12)c1nc(N)sc1Cl)C(=O)[O-].[Na+] [Compound I-30]
